Experimental data published in ChEMBL document CHEMBL3751693, “Synthesis, antimicrobial evaluation and molecular modeling of 5-hydroxyisoquinolinium salt series; the effect of the hydroxyl moiety” (Bioorg Med Chem, 2016).

Assays:
[1] = Cytotoxicity against CHOK1 cells after 24 hrs by MTT assay; assay type: cell-based; details: Cricetulus griseus, CHO-K1, 24 h
Pseudomonas aeruginosa [2] = test: Antimicrobial activity against clinical isolate Pseudomonas aeruginosa CCM 1961 after 120 hrs; assay type: functional; details: CCM 1961, 120 h
Candida tropicalis [3] = test: Antimicrobial activity against Candida tropicalis 156 after 48 hrs by spectrophotometry; assay type: functional; details: Candida tropicalis, 156, 48 h
Escherichia coli [4] = test: Antimicrobial activity against clinical isolate Escherichia coli CCM 4517 after 24 hrs; assay type: functional; details: CCM 4517, 24 h
[5] = system: Staphylococcus epidermidis; test: Antimicrobial activity against clinical isolate Staphylococcus epidermidis H 696608 after 24 hrs; assay type: functional; details: H 696608, 24 h
Nakaseomyces glabratus [6] = test: Antimicrobial activity against Candida glabrata 20/I after 24 hrs by spectrophotometry; assay type: functional
Klebsiella pneumoniae [7] = test: Antimicrobial activity against clinical isolate ESBL-Klebsiella pneumoniae J 1436808 after 24 hrs; assay type: functional; details: J 1436808, 24 h
Nakaseomyces glabratus [8] = test: Antimicrobial activity against Candida glabrata 20/I after 48 hrs by spectrophotometry; assay type: functional
Lichtheimia corymbifera [9] = test: Antimicrobial activity against Absidia corymbifera 272 after 48 hrs by spectrophotometry; assay type: functional; details: Lichtheimia corymbifera, 272, 48 h
Trichosporon asahii [10] = test: Antimicrobial activity against Trichosporon asahii 1188 after 48 hrs by spectrophotometry; assay type: functional; details: Trichosporon asahii, 1188, 48 h
[11] = system: Trichophyton mentagrophytes; test: Antimicrobial activity against Trichophyton mentagrophytes 445 after 120 hrs by spectrophotometry; assay type: functional; details: Trichophyton mentagrophytes, 445, 120 h
Pichia kudriavzevii [12] = test: Antimicrobial activity against Candida krusei E28 after 24 hrs by spectrophotometry; assay type: functional; details: E28, 24 h
Aspergillus fumigatus [13] = test: Antimicrobial activity against Aspergillus fumigatus 231 after 48 hrs by spectrophotometry; assay type: functional; details: Aspergillus fumigatus, 231, 48 h
Enterococcus sp. [14] = test: Antimicrobial activity against clinical isolate Enterococcus sp. J 1436508 after 24 hrs; assay type: functional; details: J 1436508, 24 h
[15] = system: Trichophyton mentagrophytes; test: Antimicrobial activity against Trichophyton mentagrophytes 445 after 72 hrs by spectrophotometry; assay type: functional; details: Trichophyton mentagrophytes, 445, 72 h
Candida tropicalis [16] = test: Antimicrobial activity against Candida tropicalis 156 after 24 hrs by spectrophotometry; assay type: functional; details: Candida tropicalis, 156, 24 h
Lichtheimia corymbifera [17] = test: Antimicrobial activity against Absidia corymbifera 272 after 24 hrs by spectrophotometry; assay type: functional; details: Lichtheimia corymbifera, 272, 24 h
Staphylococcus aureus [18] = test: Antimicrobial activity against clinical isolate Staphylococcus aureus CCM 451608 after 48 hrs; assay type: functional; details: CCM 451608, 48 h
[19] = system: Staphylococcus epidermidis; test: Antimicrobial activity against clinical isolate Staphylococcus epidermidis H 696608 after 48 hrs; assay type: functional; details: H 696608, 48 h
Staphylococcus aureus [20] = test: Antimicrobial activity against clinical isolate Staphylococcus aureus CCM 451608 after 24 hrs; assay type: functional; details: CCM 451608, 24 h
Trichosporon asahii [21] = test: Antimicrobial activity against Trichosporon asahii 1188 after 24 hrs by spectrophotometry; assay type: functional; details: Trichosporon asahii, 1188, 24 h
Pseudomonas aeruginosa [22] = test: Antimicrobial activity against clinical isolate Pseudomonas aeruginosa CCM 1961 after 72 hrs; assay type: functional; details: CCM 1961, 72 h
Staphylococcus aureus [23] = test: Antimicrobial activity against clinical isolate methicillin-resistant Staphylococcus aureus H 599608 after 48 hrs; assay type: functional; details: H 599608, 48 h
Staphylococcus aureus [24] = test: Antimicrobial activity against clinical isolate methicillin-resistant Staphylococcus aureus H 599608 after 24 hrs; assay type: functional; details: H 599608, 24 h
Klebsiella pneumoniae [25] = test: Antimicrobial activity against clinical isolate ESBL-Klebsiella pneumoniae J 1436808 after 48 hrs; assay type: functional; details: J 1436808, 48 h
Candida albicans [26] = test: Antimicrobial activity against Candida albicans ATCC 44859 after 48 hrs by spectrophotometry; assay type: functional; details: ATCC 44859, 48 h
Escherichia coli [27] = test: Antimicrobial activity against clinical isolate Escherichia coli CCM 4517 after 48 hrs; assay type: functional; details: CCM 4517, 48 h
Candida albicans [28] = test: Antimicrobial activity against Candida albicans ATCC 44859 after 24 hrs by spectrophotometry; assay type: functional; details: ATCC 44859, 24 h
Aspergillus fumigatus [29] = test: Antimicrobial activity against Aspergillus fumigatus 231 after 24 hrs by spectrophotometry; assay type: functional; details: Aspergillus fumigatus, 231, 24 h
Klebsiella pneumoniae [30] = test: Antimicrobial activity against clinical isolate Klebsiella pneumoniae D 1175008 after 48 hrs; assay type: functional; details: D 1175008, 48 h
Klebsiella pneumoniae [31] = test: Antimicrobial activity against clinical isolate Klebsiella pneumoniae D 1175008 after 24 hrs; assay type: functional; details: D 1175008, 24 h
Enterococcus sp. [32] = test: Antimicrobial activity against clinical isolate Enterococcus sp. J 1436508 after 48 hrs; assay type: functional; details: J 1436508, 48 h
Pichia kudriavzevii [33] = test: Antimicrobial activity against Candida krusei E28 after 48 hrs by spectrophotometry; assay type: functional; details: E28, 48 h

SMILES: CCCCCCCCCCCCCCCCCC[n+]1ccc2c(O)cccc2c1
- IC50 [1]: 7 µM

SMILES: CCCCCCCCCCCCCC[n+]1ccc2c(O)cccc2c1
- MBC (Pseudomonas aeruginosa [2]): > 500 µM
- MIC (Pseudomonas aeruginosa [2]): > 500 µM
- MFC (Candida tropicalis [3]): 7.8 µM
- MIC (Candida tropicalis [3]): 7.8 µM
- MIC (Escherichia coli [4]): > 500 µM
- MIC [5]: 3.9 µM
- MIC (Nakaseomyces glabratus [6]): 3.9 µM
- MIC (Klebsiella pneumoniae [7]): > 500 µM
- MFC (Nakaseomyces glabratus [8]): 7.8 µM
- MIC (Nakaseomyces glabratus [8]): 3.9 µM
- MFC (Lichtheimia corymbifera [9]): 125 µM
- MIC (Lichtheimia corymbifera [9]): 63 µM
- MFC (Trichosporon asahii [10]): 7.8 µM
- MIC (Trichosporon asahii [10]): 7.8 µM
- MFC [11]: 31 µM
- MIC [11]: 16 µM
- IC50 [1]: 24 µM
- MIC (Pichia kudriavzevii [12]): 3.9 µM
- MFC (Aspergillus fumigatus [13]): 125 µM
- MIC (Aspergillus fumigatus [13]): 31 µM
- MIC (Enterococcus sp. [14]): 63 µM
- MIC [15]: 16 µM
- MIC (Candida tropicalis [16]): 7.8 µM
- MIC (Lichtheimia corymbifera [17]): 63 µM
- MBC (Staphylococcus aureus [18]): 1 µM
- MIC (Staphylococcus aureus [18]): 0.5 µM
- MBC [19]: 7.8 µM
- MIC [19]: 3.9 µM
- MIC (Staphylococcus aureus [20]): 0.5 µM
- MIC (Trichosporon asahii [21]): 7.8 µM
- MIC (Pseudomonas aeruginosa [22]): > 500 µM
- MBC (Staphylococcus aureus [23]): 2 µM
- MIC (Staphylococcus aureus [23]): 2 µM
- MIC (Staphylococcus aureus [24]): 2 µM
- MBC (Klebsiella pneumoniae [25]): > 500 µM
- MIC (Klebsiella pneumoniae [25]): 500 µM
- MFC (Candida albicans [26]): 63 µM
- MIC (Candida albicans [26]): 63 µM
- MBC (Escherichia coli [27]): > 500 µM
- MIC (Escherichia coli [27]): > 500 µM
- MIC (Candida albicans [28]): 63 µM
- MIC (Aspergillus fumigatus [29]): 31 µM
- MBC (Klebsiella pneumoniae [30]): > 500 µM
- MIC (Klebsiella pneumoniae [30]): > 500 µM
- MIC (Klebsiella pneumoniae [31]): > 500 µM
- MBC (Enterococcus sp. [32]): 63 µM
- MIC (Enterococcus sp. [32]): 63 µM
- MFC (Pichia kudriavzevii [33]): 3.9 µM
- MIC (Pichia kudriavzevii [33]): 3.9 µM

SMILES: CCCCCCCCCCCCCCCC[N+](C)(C)Cc1ccccc1
- MBC (Pseudomonas aeruginosa [2]): 125 µM
- MIC (Pseudomonas aeruginosa [2]): 16 µM
- MFC (Candida tropicalis [3]): 7.8 µM
- MIC (Candida tropicalis [3]): 7.8 µM
- MIC (Escherichia coli [4]): 7.8 µM
- MIC [5]: 0.5 µM
- MIC (Nakaseomyces glabratus [6]): 2 µM
- MIC (Klebsiella pneumoniae [7]): 7.8 µM
- MFC (Nakaseomyces glabratus [8]): 63 µM
- MIC (Nakaseomyces glabratus [8]): 3.9 µM
- MFC (Lichtheimia corymbifera [9]): 63 µM
- MIC (Lichtheimia corymbifera [9]): 7.8 µM
- MFC (Trichosporon asahii [10]): 63 µM
- MIC (Trichosporon asahii [10]): 7.8 µM
- MFC [11]: 63 µM
- MIC [11]: 7.8 µM
- IC50 [1]: 15 µM
- MIC (Pichia kudriavzevii [12]): 2 µM
- MFC (Aspergillus fumigatus [13]): 63 µM
- MIC (Aspergillus fumigatus [13]): 7.8 µM
- MIC (Enterococcus sp. [14]): 2 µM
- MIC [15]: 7.8 µM
- MIC (Candida tropicalis [16]): 3.9 µM
- MIC (Lichtheimia corymbifera [17]): 7.8 µM
- MBC (Staphylococcus aureus [18]): 3.9 µM
- MIC (Staphylococcus aureus [18]): 1 µM
- MBC [19]: 3.9 µM
- MIC [19]: 0.5 µM
- MIC (Staphylococcus aureus [20]): 1 µM
- MIC (Trichosporon asahii [21]): 7.8 µM
- MIC (Pseudomonas aeruginosa [22]): 16 µM
- MBC (Staphylococcus aureus [23]): 3.9 µM
- MIC (Staphylococcus aureus [23]): 2 µM
- MIC (Staphylococcus aureus [24]): 2 µM
- MBC (Klebsiella pneumoniae [25]): 7.8 µM
- MIC (Klebsiella pneumoniae [25]): 7.8 µM
- MFC (Candida albicans [26]): 7.8 µM
- MIC (Candida albicans [26]): 7.83 µM
- MBC (Escherichia coli [27]): 7.8 µM
- MIC (Escherichia coli [27]): 7.8 µM
- MIC (Candida albicans [28]): 3.9 µM
- MIC (Aspergillus fumigatus [29]): 7.8 µM
- MBC (Klebsiella pneumoniae [30]): 7.8 µM
- MIC (Klebsiella pneumoniae [30]): 7.8 µM
- MIC (Klebsiella pneumoniae [31]): 7.8 µM
- MBC (Enterococcus sp. [32]): 3.9 µM
- MIC (Enterococcus sp. [32]): 2 µM
- MFC (Pichia kudriavzevii [33]): 2 µM
- MIC (Pichia kudriavzevii [33]): 2 µM
